From US20220054494A1, “METHODS FOR TREATING BLADDER AND URETHRA DYSFUNCTION AND DISEASE” (University of Pittsburgh - Of the Commonwealth System of …, priority 2019, published 2022) come the findings set out here.

For one assay, the system named is α-SMA. Nature of the assay: Western immunoblotting, α-SMA. The assay is classed as in vivo, rat. To be noted: aged rats; oral 8-AG 5 mg/kg/day, 6 weeks. As for the experimental part:
Western immunoblotting: Following the testing paradigms, rats were deeply anesthetized, bladders as well as the proximal urethra were removed, and one half of each preparation was homogenized using Lysing Matrix D in a FastPrep 24 instrument (MP Biomedicals, Solon, Ohio) in HBSS [5 mM KCl, 0.3 mM KH2PO4, 138 mM NaCl, 4 mM NaHO3, 0.3 mM Na2HCO3, 0.3 mM Na2HPO4, 5.6 mM glucose, and 10 mM Hepes, pH 7.4 containing a complete protease inhibitor cocktail (1 tablet/10 ml, ROCHE®, Indianapolis, Ind.) and a phosphatase inhibitor cocktail (SIGMA®, 1:100)]. After centrifugation (13000 rpm; 15 min at 4° C.), the membrane protein fraction was prepared by suspending the membrane pellets in lysis buffer containing 0.3 M NaCl, 50 mM Tris-HCl (pH 7.6), and 0.5% Triton X-100 and the same concentration of protease inhibitors as above. The suspensions were incubated on ice and centrifuged (13000 rpm; 15 min at 4° C.). The protein concentrations of the combined supernatants were determined using the PIERCE® BCA protein assay (THERMO SCIENTIFIC®, Rockford, Ill.). […] As a loading control, total protein per sample was determined using Bio-Rad Stain Free SDS-PAGE gel technology. UV-activated protein fluorescence was imaged on a CHEMIDOC® MP (BIO-RAD®). […] The volume (intensity) of each protein species was determined and normalized to total protein using Image Lab software (BIO-RAD®). […]
On the technique in general: Immunoblotting shows a protein as a band on a membrane.

Another assay relates to nitrotyrosine. Nature of the assay: Western immunoblotting, nitrotyrosine. The assay is classed as in vivo, rat. The note with it: aged rats; oral 8-AG 5 mg/kg/day, 6 weeks. As to the method:
Western immunoblotting: One half of each bladder preparation was homogenized using Lysing Matrix D in a FastPrep 24 instrument (MP Biomedicals, Solon, Ohio) in HBSS (5 mM KCl, 0.3 mM KH2PO4, 138 mM NaCl, 4 mM NaHO3, 0.3 mM Na2HCO3, 0.3 mM Na2HPO4, 5.6 mM glucose and 10 mM Hepes, pH 7.4) containing complete protease inhibitor cocktail (1 tablet/10 ml, ROCHE®, Indianapolis, Ind.)) and phosphatase inhibitor cocktail (SIGMA®, 1:100). After centrifugation (13000 rpm; 15 min at 4° C.), the membrane protein fraction was prepared by suspending the membrane pellets in lysis buffer containing 0.3 M NaCl, 50 mM Tris-HCl (pH 7.6) and 0.5% Triton X-100 and the same concentration of protease inhibitors as above. The suspensions were incubated on ice and centrifuged (13000 rpm; 15 min at 4° C.). The protein concentrations of the combined supernatants were determined using the PIERCE® BCA protein assay (THERMO SCIENTIFIC®, Rockford, Ill.). […] As a loading control, total protein per sample was determined using Bio-Rad® Stain Free SDS-PAGE gel technology. UV-activated protein fluorescence was imaged on a CHEMIDOC® MP (BIO-RAD®). […] The volume (intensity) of each protein species was determined and normalized to total protein using Image Lab software (BIO-RAD®).

“Also recorded” adds a separate entry of the source.

In the case of `Nc1nc2[nH]c(N)nc2c(=O)[nH]1` [8-AG, 8-Aminoguanine], in the assay with α-SMA, the “α-SMA expression in detrusor” value was “increasing expression toward younger state; also recorded: normalized; also recorded: restored these biomarkers to that of a younger state” and the “α-SMA expression in urethra” value is listed as “increasing expression toward younger state; also recorded: normalized to a younger state”. Moreover, the urethral nitrotyrosine entry in the assay on nitrotyrosine was “normalized to a younger state”.
